The values below come from patent publication US20240165170A1, “USE OF LACTIC ACID BACTERIUM SET FOR PREVENTING OR TREATING NSAID-INDUCED GASTRIC ULCER” (GRAPE KING BIO LTD., priority 2022, published 2024).

Data set [1] relates to ICR male mice. The data set is described as follows: aspirin-induced gastric ulcer test in ICR mice (ulcer area, ulcer index, cure rate, mucosal ulcer pathology). Format: in vivo. Also on record: key to Mucosal ulcer (pathological indicator, score per mouse): Grade 0 represents no ulcers occurred in normal tissue; Grade 1 represents less than ⅓ of superficial ulcer lesions in gastric mucosa; Grade 2 represents about ½ of superficial to middle ulcer lesions in gastric mucosa; Grade 3 represents about ⅔ of superficial to deep ulcer lesions in gastric mucosa; grade 4 represents gastric mucosal epithelial full-thickness ulcer and the lesion penetrates 3/3 of the muscle layer. The procedure:
A total of 24 ICR male mice purchased from BioLASCO (Lesco Biotechnology) were used as the experimental animals, each about 25 grams. The mice were kept in a general mouse cage, the room temperature was maintained at 22±3° C., the humidity was 55±15%, and the light and darkness were regularly 12 hours (12 hr light-dark cycle). Feed and sterile reverse osmosis water was allowed to be eaten by mice freely. Newly imported animals need to be observed for 3-5 days to ensure that there is no abnormality before testing. Before the experiment, the ICR mice were randomly grouped and caged, and each ICR mouse was marked with an ear number for identification and recording.
(§1) 24 mice were divided into a blank control group, a negative control group, a positive control group and a lactic acid bacteria test group, and there were 6 mice in each group. The mice were administered once a day for 39 consecutive days. The blank control group and the negative control group were given drinking water, the positive control group was given 20 mg/kg Omeprazole, and the lactic acid bacteria test group was given GKD7 and GKA4 freeze-dried powder, each 10.2 mg/kg/day. On day 29, 500 mg/kg aspirin was administered to the negative control group, positive control group and lactic acid bacteria test group to induce gastric ulcer (the blank control group was not administered) for 10 days (D29-D39), and finally the mice were sacrificed on D40 and performed various analyses.
(§2) The body weight of the mice was recorded every week, and after 39 consecutive days of administration, the mice were sacrificed with a high dose of Sutai 50 on the 40th day. The appearance, stomach tissues and organs of the mice were observed and made records.
Ulcer area statistics: ImageJ software was utilized to circle the ulcer focus of gastric tissue to calculate the gastric ulcer focus area of each ICR mouse. Each ulcer focus can get different scores according to the size of the ulcer (see the table below):
After each ulcer focus score is obtained, the application calculates the ulcer index of the mouse according to the following formula 1, and the higher the ulcer index, the more severe the ulcer.
If the experimental group mice (positive control group, lactic acid bacteria test group) are compared with the negative control group mice and the area of gastric ulcer (ulcer index) is reduced, it means that the experimental group produces a healing effect. Dividing the ulcer index of the experimental group by the ulcer index of the negative control group obtains the ulcer improvement rate, which is then subtracted from 1 to get the healing rate (cure rate) compared with the negative control group. The calculation method is shown as the following formula 2: […]

A short description of data set [2]: body weight change of mice during the test. It counts as in vivo. The following applies: between groups in the same period, p>0.05. The procedure:
as §1, §2

“And” between values parts separate entries of the source, which are not always exact repeats. Equal entries are not always repeated.

For the molecule `COc1ccc2[nH]c([S+]([O-])Cc3ncc(C)c(OC)c3C)nc2c1` (centres unmarked) [Omeprazole], the ulcer area in data set [1] (ICR mice, once daily for 39 days, 500 mg/kg aspirin D29-D39, sacrificed D40, 6 mice per group) came out at 7.12±2.15 mm^2. This molecule came in with a ulcer index in data set [1] (ICR mice, once daily for 39 days, 500 mg/kg aspirin D29-D39, formula 1, higher index = more severe ulcer) of 2.57±0.67. Besides, the “Cure rate (%)” value in data set [1] (formula 2: 1 minus ulcer index of group / ulcer index of negative control group) was 53.25%. The “Mucosal ulcer (pathological indicator, score per mouse)” value in data set [1] (stomach histopathology, individual mice, grade 0-4, higher score = more serious damage, listed as Positive control group) is 0 and 1. In addition, the “body weight of mice during the test” value in data set [2] is “no significant difference”.
